Bounds are passed on as bounds.

The target in this test is WDR5 (Homo sapiens (Human), UniProt P61964). In words: TR-FRET binding assay, displacement of 10mer-Thr-FAM probe from His-tagged WDR5. Particulars: Inhibition of WDR5 by TR-FRET assay. How it is done:
The LanthaScreenTM Elite Tb-anti-HIS Antibody from ThermoFisher Scientific was used for this purpose. […] The ratio of the 520 and 495 signals are then utilized to generate a dose-response curve to calculate an IC50 value. […] WDR[…] tag protein is used at 2 nM.
A general note: In TR-FRET formats the signal depends on donor and acceptor labels being close together.
In general, Ki refers to a measure of affinity in units of concentration, obtained from inhibition or displacement. Low values mean higher affinity, high ones lower affinity. The molecule `Cc1cnc(CNC(=O)c2cc(CNC3=NCCN3)cc(-c3ccc(F)nc3C)n2)cn1` [Example 76, 4-(((4,5-Dihydro-1H-imidazol-2-yl)amino)methyl)-6′-fluoro-2′-methyl-N-((5-methylpyrazin-2-yl)methyl)-[2,3′-bipyridine]-6-carboxamide] returned a Ki of 32 nM. In other words, the double-digit nanomolar range.
The same measure for `Cc1cnc(CNC(=O)c2cc(CNC3=NCCN3)cc(-c3ccc(F)nc3C)n2)nc1` [Example 77, 4-(((4,5-Dihydro-1H-imidazol-2-yl)amino)methyl)-6′-fluoro-2′-methyl-N-((5-methylpyrimidin-2-yl)methyl)-[2,3′-bipyridine]-6-carboxamide]: 33 nM; for `COc1cc(CNC(=O)c2cc(CNC3=NCCN3)cc(-c3ccc(F)nc3C)n2)cc(OC)c1` [Example 78, 4-(((4,5-Dihydro-1H-imidazol-2-yl)amino)methyl)-N-(3,5-dimethoxybenzyl)-6′-fluoro-2′-methyl-[2,3′-bipyridine]-6-carboxamide]: 0.72 nM; for `COc1cc(CNC(=O)c2cc(CNC3=NCCN3)cc(-c3ccc(F)nc3C)n2)ccn1` [Example 79, 4-(((4,5-Dihydro-1H-imidazol-2-yl)amino)methyl)-6′-fluoro-N-((2-methoxypyridin-4-yl)methyl)-2′-methyl-[2,3′-bipyridine]-6-carboxamide]: 5.74 nM.
In turn, `Cc1ncc(CNC(=O)c2cc(CNC3=NCCN3)cc(-c3ccc(F)nc3C)n2)cn1` [Example 80, 4-(((4,5-Dihydro-1H-imidazol-2-yl)amino)methyl)-6′-fluoro-2′-methyl-N-((2-methylpyrimidin-5-yl)methyl)-[2,3′-bipyridine]-6-carboxamide] registered a Ki of 22 nM.
The value for `Cc1ccncc1-c1cc(CNC2=NCCN2)cc(C(=O)NCc2ccc(Cl)c(Cl)c2)n1` [Example 81, N-(3,4-Dichlorobenzyl)-4-(((4,5-dihydro-1H-imidazol-2-yl)amino)methyl)-4′-methyl-[2,3′-bipyridine]-6-carboxamide] was 0.24 nM.
`Cc1cc(-c2cc(CNC3=NCCN3)cc(C(=O)NCc3ccc(Cl)c(Cl)c3)n2)ccn1` [Example 82, N-(3,4-Dichlorobenzyl)-4-(((4,5-dihydro-1H-imidazol-2-yl)amino)methyl)-2′-methyl-[2,4′-bipyridine]-6-carboxamide] had a Ki of 0.46 nM.
In turn, `COc1ncc(C)cc1-c1cc(CNC2=NCCN2)cc(C(=O)NCc2ccc(Cl)c(Cl)c2)n1` [Example 83, N-(3,4-Dichlorobenzyl)-4-(((4,5-dihydro-1H-imidazol-2-yl)amino)methyl)-2′-methoxy-5′-methyl-[2,3′-bipyridine]-6-carboxamide] had an inhibition constant (Ki) of 0.31 nM.
The same measure for `Cc1cnccc1-c1cc(CNC2=NCCN2)cc(C(=O)NCc2ccc(Cl)c(Cl)c2)n1` [Example 84, N-(3,4-Dichlorobenzyl)-4-(((4,5-dihydro-1H-imidazol-2-yl)amino)methyl)-3′-methyl-[2,4′-bipyridine]-6-carboxamide]: 0.15 nM; for `COc1ncc(Cl)cc1-c1cc(CNC2=NCCN2)cc(C(=O)NCc2ccc(Cl)c(Cl)c2)n1` [Example 86, 5′-Chloro-N-(3,4-dichlorobenzyl)-4-(((4,5-dihydro-1H-imidazol-2-yl)amino)methyl)-2′-methoxy-[2,3′-bipyridine]-6-carboxamide]: less than 0.1 nM.
Molecule `CCOc1ncc(C)cc1-c1cc(CNC2=NCCN2)cc(C(=O)NCc2ccc(Cl)c(Cl)c2)n1` [Example 88, N-(3,4-dichlorobenzyl)-4-(((4,5-dihydro-1H-imidazol-2-yl)amino)methyl)-2′-ethoxy-5′-methyl-[2,3′-bipyridine]-6-carboxamide] returned a Ki of 0.12 nM.
The same measure for `Cc1cc([C@H](C)NC(=O)c2cc(CNC3=NCCC3)cc(-c3ccc(F)cc3C(F)(F)F)n2)ccc1Cl` [Example 92, (S)—N-(1-(4-chloro-3-methylphenyl)ethyl)-4-(((3,4-dihydro-2H-pyrrol-5-yl)amino)methyl)-6-(4-fluoro-2-(trifluoromethyl)phenyl)picolinamide]: 1.5 nM.
The value for `COc1cc(OC)cc(C(C)NC(=O)c2cc(CNC3=NCCC3)cc(-c3ccc(F)cc3C(F)(F)F)n2)c1` (stereo not shown) [Example 93, 4-(((3,4-dihydro-2H-pyrrol-5-yl)amino)methyl)-N-(1-(3,5-dimethoxyphenyl)ethyl)-6-(4-fluoro-2-(trifluoromethyl)phenyl)picolinamide] was 3.3 nM; that for `COc1ccnc(CNC(=O)c2cc(CNC3=NCCC3)cc(-c3ccc(F)cc3C(F)(F)F)n2)c1` [Example 94, 4-(((3,4-dihydro-2H-pyrrol-5-yl)amino)methyl)-6-(4-fluoro-2-(trifluoromethyl)phenyl)-N-((4-methoxypyridin-2-yl)methyl)picolinamide] was 1.2 nM; that for `Cc1ccnc(C(NC(=O)c2cc(CNC3=NCCC3)cc(-c3ccc(F)cc3C)n2)C2CC2)c1` (stereo not shown) [Example 95, N-(Cyclopropyl(4-methylpyridin-2-yl)methyl)-4-(((3,4-dihydro-2H-pyrrol-5-yl)amino)methyl)-6-(4-fluoro-2-methylphenyl)picolinamide] was 8.6 nM.
The value for `Cc1cc(C(C)NC(=O)c2cc(CNC3=NCCC3)cc(-c3ccc(F)cc3C(F)(F)F)n2)ncc1Cl` (stereo not shown) [Example 96, N-(1-(5-chloro-4-methylpyridin-2-yl)ethyl)-4-(((3,4-dihydro-2H-pyrrol-5-yl)amino)methyl)-6-(4-fluoro-2-(trifluoromethyl)phenyl)picolinamide] was 1.5 nM.
Take `Cc1cc(F)ccc1-c1cc(CNC2=NCCC2)cc(C(=O)N[C@@H](C)c2ccc(F)c(C(F)(F)F)c2)n1` [Example 97, (S)-4-(((3,4-dihydro-2H-pyrrol-5-yl)amino)methyl)-6-(4-fluoro-2-methylphenyl)-N-(1-(4-fluoro-3-(trifluoromethyl)phenyl)ethyl)picolinamide]: the affinity corresponds to a Ki of 7.3 nM.
`Cc1nc(F)ccc1-c1cc(CNC2=NCCN2)cc(C(=O)NCc2ccc(=O)[nH]c2)n1` [Example 98, 4-(((4,5-dihydro-1H-imidazol-2-yl)amino)methyl)-6′-fluoro-2′-methyl-N-((6-oxo-1,6-dihydropyridin-3-yl)methyl)-[2,3′-bipyridine]-6-carboxamide] returned a Ki of 23 nM.
The same measure for `COc1cc(CNC(=O)c2cc(CNC(=N)N)cc(-c3ccnc(C)c3)c2)cc(OC)c1` [Example 99, N-(3,5-Dimethoxybenzyl)-3-(guanidinomethyl)-5-(2-methylpyridin-4-yl)benzamide]: 1.1 nM.
As for `Cc1cc(-c2cc(CNC(=N)N)cc(C(=O)NCc3cc(F)cc(Cl)c3)c2)ccn1` [Example 100, N-(3-Chloro-5-fluorobenzyl)-3-(guanidinomethyl)-5-(2-methylpyridin-4-yl)benzamide], the inhibition constant (Ki) was determined as 2.4 nM.
`COc1ccc(CNC(=O)c2cc(CNC(=N)N)cc(-c3ccnc(C)c3)c2)cc1Cl` [Example 101, N-(3-Chloro-4-methoxybenzyl)-3-(guanidinomethyl)-5-(2-methylpyridin-4-yl)benzamide] had a Ki of 2.1 nM.
The same measure for `COc1ccnc(CNC(=O)c2cc(CNC(=N)N)cc(-c3ccnc(C)c3)c2)c1` [Example 102, 3-(Guanidinomethyl)-N-((4-methoxypyridin-2-yl)methyl)-5-(2-methylpyridin-4-yl)benzamide]: 1 nM.

Values taken from patent US10807959B2, “WDR5-MLL1 inhibitors and modulators” (Vanderbilt University, priority 2018, dated 2020).
